“Also recorded” adds a separate entry of the source.
How the values were obtained:
[1] = tested on: MMTV-ErbB2 mouse mammary tumors; assay: MMTV-ErbB2 mammary tumor transplantation in FVB mice; format: in vivo; settings: 25 mg/kg on alternate days, established tumors; preliminary results
Description: FIGS. 9A-9B show 6-(4-Tert-Butylphenoxy)Pyridin-3-Amine (I3) treatment blocks MMTV-ErbB2 mouse mammary tumors. […] Tubulin served as a loading control. […] Tumor formation was monitored on a regular basis. Once the tumor developed to a volume of 100-300 mm^3′ mice were treated with oil (n=2) or 25 mg/kg of 6-(4-Tert-Butylphenoxy)Pyridin-3-Amine (I3) (n=2). Tumor volume was measured every 6-7 days.
Primary MMTV-ErbB2/Neu mammary tumors were harvested from the mice and a single cell suspension was prepared. 1×10^6 primary tumor cells were suspended in 50 μl of 1×PBS and kept on ice. Three weeks old recipient FVB mice were cleared of their endogenous epithelium and tumor cells were injected into the empty fat pad. Tumor development in the recipient mice was monitored and tumor volumes were measured using digital caliper. Tumor volumes were calculated using following formula: […]length×(width)^2. Once the tumor reached a volume of about 100 mm^3, recipient mice were treated with oil or 25 mg/kg of I3 on alternate days.
In human breast cancer, high levels of Notch1 and Jagged1 proteins correlated with a poor survival of breast cancer patients. In addition, activation of Notch signalling in human breast cancer also facilitates bone and lung metastasis. […] The tumor volume was measured and recorded on regular intervals.

[2] = tested on: CUTL1; assay: Annexin V apoptosis, CUTL1; format: cell-based, human; settings: 10 μM, 7 days
Description: (§1) FIGS. 6A-6D show 6-(4-Tert-Butylphenoxy)Pyridin-3-Amine (I3) induces G0/G1 cell cycle arrest and apoptosis in human T cell acute lymphoblastic leukemia cell lines and human breast cancer cell line HCC1187. […] Percentage of Annexin V positive (apoptotic) cell population was measured using flow cytometry.
(§2) To quantitate the percentage of apoptotic cells, AnnexinV and 7AAD staining was performed. Thymic cells were suspended in 300 μl of 1× AnnexinV binding buffer (BD Biosciences, San Diego, USA) and incubated with 10 μl of AnnexinV-Cy5 antibody and 10 μl of 7AAD (BD Biosciences, San Diego, USA). Samples were incubated for 15 minutes at room temperature. FACS was performed with in one hour of antibody staining.
(§3) This 6-(4-Tert-Butylphenoxy)Pyridin-3-Amine (I3) mediated proliferative arrest could be due to induction of apoptosis or cell cycle arrest during different phases of cell cycle. […] Therefore to further elucidate the mechanisms responsible for 6-(4-Tert-Butylphenoxy)Pyridin-3-Amine (I3) mediated proliferative arrest cell cycle and apoptosis analyses were carried out. […] To investigate cell death, Annexin V staining was performed and proportion of apoptotic (AnnexinV positive) cell population was determined by flow cytometry analyses after 7 days of treatment.

[3] = tested on: HCC1187; assay: Annexin V apoptosis, HCC1187; format: cell-based, human; settings: 10 μM, 7 days
Description: as §1, §2, §3

[4] = tested on: RPMI8402; assay: Cell cycle analysis (Ki67 and Hoechst stain), RPMI8402; format: cell-based, human; settings: 10 μM
Description: as §1
In addition to induction of apoptosis, the proliferative arrest observed in 6-(4-Tert-Butylphenoxy)Pyridin-3-Amine (I3) treated human leukemic cell lines and breast cancer cell line also appears to be due to cell cycle arrest in G0/G1 phase of the cell cycle. Leukemic cell lines (RPMI8402, KOPTK1 and TALL1) and breast cancer cell lines were treated with 6-(4-Tert-Butylphenoxy)Pyridin-3-Amine (I3) for 48 hours and cell cycle status was determined using Ki67 and Hoechst stain.

[5] = tested on: MZB cells in the spleen; assay: Marginal Zone B cell development in the spleen (flow cytometry); format: in vivo, mouse; settings: 25 mg/kg, 7 consecutive days, analysed day 8
Description: FIGS. 7A-7C show 6-(4-Tert-Butylphenoxy)Pyridin-3-Amine (I3) mimics genetic loss of Notch2 signalling phenotype in the spleen. Loss of Notch signalling in the spleen leads to a reduction in Marginal Zone B cells (MZB) cells in the spleen. […] Spleens were analyzed on day 8. Using B220 specific antibodies, B cells in the spleen were identified. MZB cells within the B cell compartment were detected using antibodies against CD23 and CD21 cell surface markers.
Fluorescence activated cell sorting (FACS) analyses were performed on CyAn™ ADP instrument platform for flow cytometry at Flow cytometry core facility, EPFL. DL4 and Notch1 expression in DL4- and N1-HeLa cells was determined using anti-DL4 and anti-N1 antibodies respectively. T cell development in the thymus was investigated using antibodies against CD4, CD8 and TCRβ. MZB cell development was monitored using antibodies against B220, CD21 and CD23. In brief, a single cell suspension was prepared from thymus and spleen. […]
Applicants hypothesized that 6-(4-Tert-Butylphenoxy)Pyridin-3-Amine (I3) mediated inhibition of Notch2 signalling should lead to a block in MZB cell development in the spleen. MZB cell development was assessed by flow cytometry staining of splenocytes with antibodies directed against B220, CD21 and CD23.

CC(C)(C)c1ccc(Oc2ccc(N)cn2)cc1 [I3, 6-(4-Tert-Butylphenoxy)Pyridin-3-Amine]
tumor volume / tumor progression [1]: caused significant tumor growth retardation; also recorded: exhibited a slow tumor progression compared to oil treated mice; also recorded: led to a block in tumor progression in the mice
apoptosis (Annexin V positive cells) [2]: induces significant apoptosis
apoptosis (Annexin V positive cells) [3]: induces apoptosis
cell cycle status ([4]; 48 hours): induces an arrest in the G0/G1 phase of the cell cycle
increase in cells arrested in G0/G1 phase of the cell cycle ([4]; stated jointly for RPMI8402, KOPTK1 and TALL1): 20-30%
absolute numbers of MZB cells in the spleen [5]: loss of MZB cell population in the spleen also reflects in the absolute number of MZB cells; also recorded: causes a reduction the percentage and absolute numbers of MZB cells in the spleen
percentage of MZB cells in the spleen [5]: leads to a reduction in the percentage of MZB cell population in the spleen; also recorded: causes a significant reduction in the percentage of MZB cells in the spleen; also recorded: causes a reduction the percentage and absolute numbers of MZB cells in the spleen
